Reference: publication PMC4149780, “Structural basis for polyspecificity in the POT family of proton-coupled oligopeptide transporters” (EMBO Reports, 2014)

Assays:
Format in all cases: biochemical, Streptococcus thermophilus
PepTSt (WT) = assay: proton-driven [3H]-di-Ala uptake competition in reconstituted liposomes, WT transporter
Description: (§1) PepTSt was reconstituted into Escherichia coli total lipids with egg PC liposomes and assayed using a proton-driven system as previously described.
Figure S2. Substrate specificity profile for PepTSt.
‘% residual transport ’ refers to competition for 3H-Ala-Ala uptake in the presence of 10 mM of the cold peptides indicated on the X-axis as a percentage of ‘no competitor’ peptide in a reconstituted proton driven uptake assay.Error bars indicate the standard deviation from three independent

PepTSt Tyr29Phe (Y29F) = assay: proton-driven [3H]-di-Ala uptake competition in reconstituted liposomes, Y29F variant
Excerpt: as §1

PepTSt Asn156Ala (N156A) = assay: proton-driven [3H]-di-Ala uptake competition in reconstituted liposomes, N156A variant
Excerpt: as §1

PepTSt Trp427Phe (W427F) = assay: proton-driven [3H]-di-Ala uptake competition in reconstituted liposomes, W427F variant
Excerpt: as §1

Substance	IC50 (PepTSt (WT); WT PepTSt in liposomes, proton-driven uptake) [µM]	IC50 (PepTSt Tyr29Phe (Y29F)) [µM]	IC50 (PepTSt Asn156Ala (N156A)) [µM]	IC50 (PepTSt Trp427Phe (W427F)) [µM]	% residual transport (competition for 3H-Ala-Ala uptake), result in words (PepTSt (WT); 10 mM cold peptide, reconstituted proton driven uptake assay, WT PepTSt)
L-Ala-L-Ala [Ala-Ala]	37	40	86	35	–
tri-glycine	–	–	–	–	not able to compete effectively
